Laboratory results published in US4732970A, “Antitumor amino acid and peptide derivatives of 1,4-bis(aminoalkyl and hydroxy-aminoalkyl)amino)-5,8-dihydroxyanthraquinones” (priority 1986, dated 1988).
*1 amine or outer side, *2 acyl side, *3 side chain or, on linkers, in order; H or OH if unused. Where a SMILES comes first, the peptide text is derived from it. Bridges are numbered along the chain shown (N, C = ends). Roman numbers before positions name the chains, in order. X1 = O=C1c2c(O)ccc(O)c2C(=O)c2c(NCCN[*:2])ccc(NCCN[*:1])c21

Test system: lymphocytic leukemia P388
Experiment: Lymphocytic Leukemia P388 Test
Format: in vivo, BDF1 mice
Details: for Median Survival: BDF1 mice; for T/C × 100 (%): ratio of survival time treated/control; for response vs control in vivo at 0.75 mg/kg / response vs control in vivo at 1.5 mg/kg / response vs control in vivo at 3 mg/kg: Mus musculus, P388, ip, read-out: T/C × 100 (%)
Summary of the method: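 BDF1 mice (5–6 per group) were inoculated i.p. with 10^6 P388 cells, then dosed i.p. on days 1, 5 and 9 at various doses. Survival was followed for 60 days, and median survival time and the treated/control (T/C) survival ratio were calculated.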

[1] = dose 0.75 mg/kg intraperitoneally on days 1, 5 and 9
[2] = dose 1.5 mg/kg intraperitoneally on days 1, 5 and 9
[3] = dose 3 mg/kg intraperitoneally on days 1, 5 and 9

| Structure (SMILES) | Median Survival [1] [days] | T/C × 100 (%) [1] [%] | Median Survival [2] [days] | T/C × 100 (%) [2] [%] | Median Survival [3] [days] | T/C × 100 (%) [3] [%] | response vs control in vivo at 0.75 mg/kg [%] | response vs control in vivo at 1.5 mg/kg [%] | response vs control in vivo at 3 mg/kg [%] |
| --- | --- | --- | --- | --- | --- | --- | --- | --- | --- |
| O=C(CNC(=O)CNC(=O)OCc1ccccc1)NCCNc1ccc(NCCNC(=O)CNC(=O)CNC(=O)OCc2ccccc2)c2c1C(=O)c1c(O)ccc(O)c1C2=O [Example 57, N,N'-[(9,10-Dihydro-5,8-dihydroxy-9,10-dioxo-1,4-anthracenediyl)bis(imino-2,1-ethanediyl)]bis[N-[(phenylmethoxy)carbonyl]glycyl]glycinamide] | 12.0 | 109 | 14.0 | 127 | 15.0 | 136 |  |  |  |
| Br.Br.NCC(=O)NCC(=O)NCCNc1ccc(NCCNC(=O)CNC(=O)CN)c2c1C(=O)c1c(O)ccc(O)c1C2=O [Example 58, N,N'-[(9,10-Dihydro-5,8-dihydroxy-9,10-dioxo-1,4-anthracenediyl)bis(imino-2,1-ethanediyl)]bis[glycyl-glycinamide]dihydrobromide] | 22.0 | 200 | 21.5 | 195 | 24.0 | 218 |  |  |  |
| CC(C)(C)OC(=O)NCC(=O)NCC(=O)NCC(=O)NCCNc1ccc(NCCNC(=O)CNC(=O)CNC(=O)CNC(=O)OC(C)(C)C)c2c1C(=O)c1c(O)ccc(O)c1C2=O [Example 59, N,N'-[(9,10-Dihydro-5,8-dihydroxy-9,10-dioxo-1,4-anthracenediyl)bis(imino-2,1-ethanediyl)]bis[N-[(1,1-dimethylethoxy)carbonyl]glycylglycyl]glycinamide] | 15.0 | 136 | 15.5 | 141 | 18.0 | 164 |  |  |  |
| NCC(=O)NCC(=O)NCC(=O)NCCNc1ccc(NCCNC(=O)CNC(=O)CNC(=O)CN)c2c1C(=O)c1c(O)ccc(O)c1C2=O.O=C(O)C(F)(F)F.O=C(O)C(F)(F)F [Example 60, N,N'-[(9,10-Dihydro-5,8-dihydroxy-9,10-dioxo-1,4-anthracenediyl)bis(imino-2,1-ethanediyl)]bis[glycylglycylglycinamide]bis(trifluoroacetate)] | 19.5 | 177 | 23.0 | 209 | 22.0 | 200 |  |  |  |
| Br.Br.CC(C)C[C@H](NC(=O)[C@@H]1CCCN1C(=O)CN)C(=O)NCC(=O)N1CCC[C@H]1C(=O)NCCNc1ccc(NCCNC(=O)[C@@H]2CCCN2C(=O)CNC(=O)[C@H](CC(C)C)NC(=O)[C@@H]2CCCN2C(=O)CN)c2c1C(=O)c1c(O)ccc(O)c1C2=O [Example 62, N,N'-[(9,10-Dihydro-5,8-dihydroxy-9,10-dioxo-1,4-anthracenediyl)bis(imino-2,1-ethanediyl)]bis[glycyl-L-prolyl-L-leucylglycyl-L-prolinamide]dihydrobromide] | 19.0 | 190 | 22.0 | 220 | 24.5 | 245 |  |  |  |
| Br.Br.C[C@H](NC(=O)[C@@H]1CCCN1C(=O)CNC(=O)CNC(=O)[C@@H]1CCCN1C(=O)CN)C(=O)NCCNc1ccc(NCCNC(=O)[C@H](C)NC(=O)[C@@H]2CCCN2C(=O)CNC(=O)CNC(=O)[C@@H]2CCCN2C(=O)CN)c2c1C(=O)c1c(O)ccc(O)c1C2=O [Example 64, N,N'-[(9,10-Dihydro-5,8-dihydroxy-9,10-dioxo-1,4-anthracenediyl)bis(imino-2,1-ethanediyl)]bis[glycyl-L-prolylglycylglycyl-L-prolyl-L-alaninamide]-dihydrobromide] (I: H-GPGGPA / II: H-GPGGPA; linker I:C-II:C via X1) | 19.5 |  | 20.5 |  | 25.5 |  | 195 | 205 | 255 |
| CC(C)C[C@H](NC(=O)[C@H](C)NC(=O)OC(C)(C)C)C(=O)NCCNc1ccc(NCCNC(=O)[C@H](CC(C)C)NC(=O)[C@H](C)NC(=O)OC(C)(C)C)c2c1C(=O)c1c(O)ccc(O)c1C2=O [Example 65] | 12.0 | 109 | 12.0 | 109 | 13.5 | 123 |  |  |  |
| CC(C)C[C@H](NC(=O)[C@H](C)N)C(=O)NCCNc1ccc(NCCNC(=O)[C@H](CC(C)C)NC(=O)[C@H](C)N)c2c1C(=O)c1c(O)ccc(O)c1C2=O.O=C(O)C(F)(F)F.O=C(O)C(F)(F)F [Example 66, N,N'-[(9,10-Dihydro-5,8-dihydroxy-9,10-dioxo-1,4-anthracenediyl)bis(imino-2,1-ethanediyl)]bis[L-alanyl-L-leucinamide]bis(trifluoroacetate)] | 19.0 | 173 | 20.0 | 182 | 28.0 | 255 |  |  |  |
| CC(C)C[C@H](NC(=O)[C@H](C)NC(=O)[C@H](C)NC(=O)OC(C)(C)C)C(=O)NCCNc1ccc(NCCNC(=O)[C@H](CC(C)C)NC(=O)[C@H](C)NC(=O)[C@H](C)NC(=O)OC(C)(C)C)c2c1C(=O)c1c(O)ccc(O)c1C2=O [Example 67, N,N'-[(9,10-Dihydro-5,8-dihydroxy-9,10-dioxo-1,4-anthracenediyl)bis(imino-2,1-ethanediyl)]bis[N-[(1,1-dimethylethoxy)carbonyl]-L-alanyl-L-alanyl-L-leucinamide]] | 15.5 |  | 16.5 |  | 16.0 |  | 155 | 165 | 160 |
| CC(C)C[C@H](NC(=O)[C@H](C)NC(=O)[C@H](C)N)C(=O)NCCNc1ccc(NCCNC(=O)[C@H](CC(C)C)NC(=O)[C@H](C)NC(=O)[C@H](C)N)c2c1C(=O)c1c(O)ccc(O)c1C2=O.O=C(O)C(F)(F)F.O=C(O)C(F)(F)F [Example 68] | 21.0 | 210 | 21.5 | 215 | 22.0 | 220 |  |  |  |
| CC(C)C[C@H](NC(=O)CNC(=O)CNC(=O)OCc1ccccc1)C(=O)NCCNc1ccc(NCCNC(=O)[C@H](CC(C)C)NC(=O)CNC(=O)CNC(=O)OCc2ccccc2)c2c1C(=O)c1c(O)ccc(O)c1C2=O [Example 69, N,N'-[(9,10-Dihydro-5,8-dihydroxy-9,10-dioxo-1,4-anthracenediyl)bis(imino-2,1-ethanediyl)]bis[N-[(phenylmethoxy)carbonyl]glycylglycyl-L-leucinamide]] | 17.0 |  | 17.0 |  | 18.0 |  | 170 | 170 | 180 |
| Br.Br.CC(C)C[C@H](NC(=O)CNC(=O)CN)C(=O)NCCNc1ccc(NCCNC(=O)[C@H](CC(C)C)NC(=O)CNC(=O)CN)c2c1C(=O)c1c(O)ccc(O)c1C2=O [Example 70, N,N'-[(9,10-Dihydro-5,8-dihydroxy-9,10-dioxo-1,4-anthracenediyl)bis(imino-2,1-ethanediyl)]bis[glycylglycyl-L-leucinamide]dihydrobromide] | 22.0 | 220 | 22.5 | 225 | 44.5 | 445 |  |  |  |
| C[C@H](N)C(=O)N[C@@H](C)C(=O)N[C@@H](C)C(=O)NCCNc1ccc(NCCNC(=O)[C@H](C)NC(=O)[C@H](C)NC(=O)[C@H](C)N)c2c1C(=O)c1c(O)ccc(O)c1C2=O.O=C(O)C(F)(F)F.O=C(O)C(F)(F)F [Example 73, N,N'-[(9,10-Dihydro-5,8-dihydroxy-9,10-dioxo-1,4-anthracenediyl)bis(imino-2,1-ethanediyl)]bis[L-alanyl-L-alanyl-L-alanine]bis(trifluoroacetate)] | 21.0 | 200 | 24.5 | 233 | 40.0 | 381 |  |  |  |
| C[C@H](NC(=O)[C@H](CO)NC(=O)OC(C)(C)C)C(=O)NCCNc1ccc(NCCNC(=O)[C@H](C)NC(=O)[C@H](CO)NC(=O)OC(C)(C)C)c2c1C(=O)c1c(O)ccc(O)c1C2=O [Example 75] | 18.5 | 154 | 19.0 | 158 | 21.0 | 175 |  |  |  |
| C[C@H](NC(=O)[C@@H](N)CO)C(=O)NCCNc1ccc(NCCNC(=O)[C@H](C)NC(=O)[C@@H](N)CO)c2c1C(=O)c1c(O)ccc(O)c1C2=O.O=C(O)C(F)(F)F.O=C(O)C(F)(F)F [Example 76, N,N'-[(9,10-Dihydro-5,8-dihydroxy-9,10-dioxo-1,4-anthracenediyl)bis(imino-2,1-ethanediyl)]bis[L-seryl-L-alaninamide]bis(trifluoroacetate)] | 22.0 | 183 | 22.5 | 188 | 22.5 | 188 |  |  |  |
